Assay results published in ChEMBL document CHEMBL1201861, “Genomics of Drug Sensitity in Cancer screening data, Wellcome Trust Sanger Institute”.

Legend:
Experiment in all cases: cells
Assay type in all cases: functional, cell-based
Details in all cases: Homo sapiens
Huh-7 = system: Huh-7;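 also: HuH-7 cell growth inhibition, read out with a cell viability assay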
Description: SANGER: Inhibition of human HuH-7 cell growth in a cell viability assay.

ChaGo-K-1 = system: ChaGo-K-1;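 also: growth inhibition of ChaGo-K-1 cells, read out with a cell viability assay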
Description: SANGER: Inhibition of human ChaGo-K-1 cell growth in a cell viability assay.

ACHN = system: ACHN;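 also: cell viability read-out used to gauge how strongly growth of human ACHN cells is suppressed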
Description: SANGER: Inhibition of human ACHN cell growth in a cell viability assay.

MDA-MB-453 = system: MDA-MB-453
Description: SANGER: Inhibition of human MDA-MB-453 cell growth in a cell viability assay.

MKN-28 = system: MKN-28;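 also: cell viability assay read-out, IC50 reflects suppression of growth of human MKN-28 cells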
Description: SANGER: Inhibition of human MKN28 cell growth in a cell viability assay.

CPC-N = system: CPC-N;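 also: growth inhibition of CPC-N cells, with a cell viability assay as the readout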
Description: SANGER: Inhibition of human CPC-N cell growth in a cell viability assay.

SW948 = system: SW948;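 also: growth inhibition of SW948 cells, read out with a cell viability assay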
Description: SANGER: Inhibition of human SW948 cell growth in a cell viability assay.

COLO-679 = system: COLO-679
Description: SANGER: Inhibition of human COLO-679 cell growth in a cell viability assay.

KP-4 = system: KP-4;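 also: human KP-4 cells, with growth inhibition read out through a cell viability assay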
Description: SANGER: Inhibition of human KP-4 cell growth in a cell viability assay.

CaR-1 = system: CaR-1;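 also: growth inhibition of human CaR-1 cancer cells, read out with a cell viability assay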
Description: SANGER: Inhibition of human CaR-1 cell growth in a cell viability assay.

NCI-H1563 = system: NCI-H1563;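 also: growth inhibition of human NCI-H1563 cells, read out with a cell viability assay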
Description: SANGER: Inhibition of human NCI-H1563 cell growth in a cell viability assay.

HCT-15 = system: HCT-15;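 also: cell viability readout, IC50 reflecting suppression of HCT-15 cell growth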
Description: SANGER: Inhibition of human HCT-15 cell growth in a cell viability assay.

SK-N-AS = system: SK-N-AS;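 also: growth inhibition of human SK-N-AS cells, measured with a cell viability assay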
Description: SANGER: Inhibition of human SK-N-AS cell growth in a cell viability assay.

NCI-H1522 = system: NCI-H1522;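 also: growth inhibition of NCI-H1522 cells, read out with a cell viability assay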
Description: SANGER: Inhibition of human NCI-H1522 cell growth in a cell viability assay.

LCLC-97TM1 = system: LCLC-97TM1;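 also: cell viability assay measuring growth inhibition of human LCLC-97TM1 cells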
Description: SANGER: Inhibition of human LCLC-97TM1 cell growth in a cell viability assay.

HMV-2 cell line = system: HMV-2 cell line;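 also: growth inhibition of HMV-II cells, read out with a cell viability assay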
Description: SANGER: Inhibition of human HMV-II cell growth in a cell viability assay.

NCI-H1651 = system: NCI-H1651;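 also: Read-out is a cell viability assay, with IC50 expressing inhibition of NCI-H1651 cell growth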
Description: SANGER: Inhibition of human NCI-H1651 cell growth in a cell viability assay.

NCI-H810 = system: NCI-H810;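 also: IC50 reflects inhibition of cancer cell line growth, read out with a cell viability assay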
Description: SANGER: Inhibition of human NCI-H810 cell growth in a cell viability assay.

NCI-H28 = system: NCI-H28;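 also: growth inhibition of human NCI-H28 cells, read out as cell viability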
Description: SANGER: Inhibition of human NCI-H28 cell growth in a cell viability assay.

Capan-2 = system: Capan-2;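 also: Capan-2 cell growth inhibition, read out with a viability assay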
Description: SANGER: Inhibition of human Capan-2 cell growth in a cell viability assay.

Ca9-22 = system: Ca9-22;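 also: growth inhibition of Ca9-22 cells, read out with a cell viability assay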
Description: SANGER: Inhibition of human Ca9-22 cell growth in a cell viability assay.

JEG-3 = system: JEG-3;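 also: growth inhibition of human JEG-3 cells, read out with a cell viability assay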
Description: SANGER: Inhibition of human JEG-3 cell growth in a cell viability assay.

EB2 = system: EB2;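 also: growth inhibition of EB2 cells, read out with a cell viability assay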
Description: SANGER: Inhibition of human EB2 cell growth in a cell viability assay.

YT = system: YT
Description: SANGER: Inhibition of human YT cell growth in a cell viability assay.

CAL-54 = system: CAL-54;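 also: growth inhibition of CAL-54 cells, read out by a viability measurement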
Description: SANGER: Inhibition of human CAL-54 cell growth in a cell viability assay.

T47D = system: T47D;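 also: growth inhibition of human T47D cells, measured with a cell viability assay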
Description: SANGER: Inhibition of human T47D cell growth in a cell viability assay.

HCC2157 = system: HCC2157;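 also: growth inhibition of the cancer cell line, read out as cell viability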
Description: SANGER: Inhibition of human HCC2157 cell growth in a cell viability assay.

SBC-5 = system: SBC-5;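 also: cell viability assay read-out, IC50 is the concentration that inhibits growth of the cells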
Description: SANGER: Inhibition of human SBC-5 cell growth in a cell viability assay.

TE-15 = system: TE-15;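 also: cell viability readout of growth inhibition in TE-15 cells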
Description: SANGER: Inhibition of human TE-15 cell growth in a cell viability assay.

HCC 2998 = system: HCC 2998;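 also: growth inhibition of human HCC2998 cells, measured with a cell viability read-out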
Description: SANGER: Inhibition of human HCC2998 cell growth in a cell viability assay.

PC-3 = system: PC-3;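 also: cell viability assay measuring growth inhibition of PC-3 cells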
Description: SANGER: Inhibition of human PC-3 cell growth in a cell viability assay.

NCI-H1437 = system: NCI-H1437;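 also: growth inhibition of human NCI-H1437 cells, read out by a cell viability assay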
Description: SANGER: Inhibition of human NCI-H1437 cell growth in a cell viability assay.

D-542MG = system: D-542MG
Description: SANGER: Inhibition of human D-542MG cell growth in a cell viability assay.

MHH-ES-1 = system: MHH-ES-1;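 also: cell growth inhibition measured by a cell viability assay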
Description: SANGER: Inhibition of human MHH-ES-1 cell growth in a cell viability assay.

REH = system: REH;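 also: growth inhibition of REH cells determined with a cell viability read-out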
Description: SANGER: Inhibition of human REH cell growth in a cell viability assay.

NCI-H1882 = system: NCI-H1882;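 also: growth inhibition of the cell line, determined with a viability assay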
Description: SANGER: Inhibition of human NCI-H1882 cell growth in a cell viability assay.

UACC-812 = system: UACC-812
Description: SANGER: Inhibition of human UACC-812 cell growth in a cell viability assay.

NCI-H524 = system: NCI-H524;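 also: growth inhibition of human NCI-H524 cells, read out through a cell viability assay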
Description: SANGER: Inhibition of human NCI-H524 cell growth in a cell viability assay.

NCI-H2122 = system: NCI-H2122;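 also: growth inhibition of the cells, read out with a cell viability assay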
Description: SANGER: Inhibition of human NCI-H2122 cell growth in a cell viability assay.

DOK = system: DOK;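 also: cell viability assay read-out, values reflect inhibition of cell growth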
Description: SANGER: Inhibition of human DOK cell growth in a cell viability assay.

NCI-H2347 = system: NCI-H2347;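 also: growth inhibition of the cell line, read out with a cell viability assay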
Description: SANGER: Inhibition of human NCI-H2347 cell growth in a cell viability assay.

SW1573 = system: SW1573;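 also: growth inhibition of SW1573 cells, read out with a cell viability assay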
Description: SANGER: Inhibition of human SW1573 cell growth in a cell viability assay.

CAL-85-1 = system: CAL-85-1;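 also: growth inhibition of human CAL-85-1 cells, read out with a cell viability assay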
Description: SANGER: Inhibition of human CAL-85-1 cell growth in a cell viability assay.

SNU-C1 = system: SNU-C1;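 also: growth inhibition of SNU-C1 human cells, read out by a cell viability assay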
Description: SANGER: Inhibition of human SNU-C1 cell growth in a cell viability assay.

DBTRG-05MG = system: DBTRG-05MG;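 also: cell viability assay measuring growth inhibition of human DBTRG-05MG cells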
Description: SANGER: Inhibition of human DBTRG-05MG cell growth in a cell viability assay.

EFO-21 = system: EFO-21;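 also: growth inhibition of EFO-21 cells measured with a viability assay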
Description: SANGER: Inhibition of human EFO-21 cell growth in a cell viability assay.

HCT-116 = system: HCT-116
Description: SANGER: Inhibition of human HCT-116 cell growth in a cell viability assay.

OAW-28 = system: OAW-28;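 also: growth inhibition of OAW-28 cells, read out with a cell viability assay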
Description: SANGER: Inhibition of human OAW-28 cell growth in a cell viability assay.

MC-IXC = system: MC-IXC;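 also: growth inhibition of MC-IXC cells, read out with a cell viability assay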
Description: SANGER: Inhibition of human MC-IXC cell growth in a cell viability assay.

SW1783 = system: SW1783;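 also: cell growth inhibition measured with a viability assay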
Description: SANGER: Inhibition of human SW1783 cell growth in a cell viability assay.

HuO-3N1 = system: HuO-3N1;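 also: cell viability readout used to measure how strongly compounds suppress proliferation of human HuO-3N1 cells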
Description: SANGER: Inhibition of human HuO-3N1 cell growth in a cell viability assay.

NCI-H650 = system: NCI-H650;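 also: growth inhibition of NCI-H650 cells, read out by a viability assay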
Description: SANGER: Inhibition of human NCI-H650 cell growth in a cell viability assay.

ME-180 = system: ME-180;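 also: cell viability assay measuring growth inhibition of ME-180 cells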
Description: SANGER: Inhibition of human ME-180 cell growth in a cell viability assay.

NCI-H889 = system: NCI-H889;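 also: cell growth inhibition of the cell line, read out with a viability assay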
Description: SANGER: Inhibition of human NCI-H889 cell growth in a cell viability assay.

786-0 = system: 786-0
Description: SANGER: Inhibition of human 786-0 cell growth in a cell viability assay.

UACC-62 = system: UACC-62;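 also: growth inhibition of human UACC-62 cells, read out by a cell viability assay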
Description: SANGER: Inhibition of human UACC-62 cell growth in a cell viability assay.

NCI-H522 = system: NCI-H522
Description: SANGER: Inhibition of human NCI-H522 cell growth in a cell viability assay.

SiHa = system: SiHa
Description: SANGER: Inhibition of human SiHa cell growth in a cell viability assay.

RO82-W-1 = system: RO82-W-1
Description: SANGER: Inhibition of human RO82-W-1 cell growth in a cell viability assay.

OAW-42 = system: OAW-42
Description: SANGER: Inhibition of human OAW-42 cell growth in a cell viability assay.

NCI-H2196 = system: NCI-H2196
Description: SANGER: Inhibition of human NCI-H2196 cell growth in a cell viability assay.

COLO-680N = system: COLO-680N
Description: SANGER: Inhibition of human COLO-680N cell growth in a cell viability assay.

MRK-nu-1 = system: MRK-nu-1
Description: SANGER: Inhibition of human MRK-nu-1 cell growth in a cell viability assay.

SK-MEL-24 = system: SK-MEL-24
Description: SANGER: Inhibition of human SK-MEL-24 cell growth in a cell viability assay.

HCC70 = system: HCC70
Description: SANGER: Inhibition of human HCC70 cell growth in a cell viability assay.

N#C/C(=C1/Nc2ccccc2S1)c1ccnc(NCCc2cccnc2)n1
IC50 (Huh-7): > 8 µM
IC50 (ChaGo-K-1): 4.59 µM
IC50 (ACHN): 2.35 µM
IC50 (MDA-MB-453): > 8 µM
IC50 (MKN-28): > 8 µM
IC50 (CPC-N): > 8 µM
IC50 (SW948): > 8 µM
IC50 (COLO-679): > 8 µM
IC50 (KP-4): 6.43 µM
IC50 (CaR-1): > 8 µM
IC50 (NCI-H1563): > 8 µM
IC50 (HCT-15): > 8 µM
IC50 (SK-N-AS): > 8 µM
IC50 (NCI-H1522): > 8 µM
IC50 (LCLC-97TM1): 2.12 µM
IC50 (HMV-2 cell line): 0.793 µM
IC50 (NCI-H1651): > 8 µM
IC50 (NCI-H810): 5.34 µM
IC50 (NCI-H28): 3.29 µM
IC50 (Capan-2): 6.67 µM
IC50 (Ca9-22): > 8 µM
IC50 (JEG-3): > 8 µM
IC50 (EB2): > 8 µM
IC50 (YT): > 8 µM
IC50 (CAL-54): > 8 µM
IC50 (T47D): > 8 µM
IC50 (HCC2157): > 8 µM
IC50 (SBC-5): 6.89 µM
IC50 (TE-15): 2.22 µM
IC50 (HCC 2998): 3.17 µM
IC50 (PC-3): > 8 µM
IC50 (NCI-H1437): 4.15 µM
IC50 (D-542MG): > 8 µM
IC50 (MHH-ES-1): > 8 µM
IC50 (REH): > 8 µM
IC50 (NCI-H1882): > 8 µM
IC50 (UACC-812): > 8 µM
IC50 (NCI-H524): > 8 µM
IC50 (NCI-H2122): 0.672 µM
IC50 (DOK): > 8 µM
IC50 (NCI-H2347): > 8 µM
IC50 (SW1573): > 8 µM
IC50 (CAL-85-1): 1.5 µM
IC50 (SNU-C1): > 8 µM
IC50 (DBTRG-05MG): > 8 µM
IC50 (EFO-21): > 8 µM
IC50 (HCT-116): > 8 µM
IC50 (OAW-28): > 8 µM
IC50 (MC-IXC): > 8 µM
IC50 (SW1783): 6.17 µM
IC50 (HuO-3N1): 0.815 µM
IC50 (NCI-H650): > 8 µM
IC50 (ME-180): > 8 µM
IC50 (NCI-H889): > 8 µM
IC50 (786-0): 3.08 µM
IC50 (UACC-62): > 8 µM
IC50 (NCI-H522): 4.93 µM
IC50 (SiHa): > 8 µM
IC50 (RO82-W-1): > 8 µM
IC50 (OAW-42): 7.7 µM
IC50 (NCI-H2196): > 8 µM
IC50 (COLO-680N): > 8 µM
IC50 (MRK-nu-1): > 8 µM
IC50 (SK-MEL-24): > 8 µM
IC50 (HCC70): > 8 µM

CO[C@@]12[C@H](COC(N)=O)C3=C(C(=O)C(C)=C(N)C3=O)N1C[C@@H]1N[C@@H]12 [MITOMYCIN]
IC50 (Huh-7): 3.22 µM
IC50 (ChaGo-K-1): 1.91 µM
IC50 (ACHN): 0.0721 µM
IC50 (MDA-MB-453): 1.08 µM
IC50 (MKN-28): 0.23 µM
IC50 (CPC-N): 0.381 µM
IC50 (SW948): 3.75 µM
IC50 (COLO-679): 0.0902 µM
IC50 (CaR-1): 0.469 µM
IC50 (NCI-H1563): 1.43 µM
IC50 (HCT-15): 0.465 µM
IC50 (SK-N-AS): 1.79 µM
IC50 (NCI-H1522): 3.24 µM
IC50 (LCLC-97TM1): 0.139 µM
IC50 (HMV-2 cell line): 0.166 µM
IC50 (NCI-H1651): < 0.0625 µM
IC50 (NCI-H810): 0.252 µM
IC50 (NCI-H28): 2.44 µM
IC50 (Capan-2): 2.79 µM
IC50 (Ca9-22): 0.156 µM
IC50 (JEG-3): 2.23 µM
IC50 (EB2): 0.0654 µM
IC50 (YT): 0.463 µM
IC50 (CAL-54): 1.84 µM
IC50 (T47D): 6.37 µM
IC50 (HCC2157): 0.727 µM
IC50 (SBC-5): < 0.0625 µM
IC50 (TE-15): 0.0737 µM
IC50 (HCC 2998): 0.16 µM
IC50 (PC-3): 4.07 µM
IC50 (NCI-H1437): 0.126 µM
IC50 (D-542MG): 0.602 µM
IC50 (MHH-ES-1): 0.0163 µM
IC50 (REH): < 0.0625 µM
IC50 (NCI-H1882): 0.257 µM
IC50 (UACC-812): > 16 µM
IC50 (NCI-H524): 2.7 µM
IC50 (NCI-H2122): < 0.0625 µM
IC50 (DOK): 5.16 µM
IC50 (NCI-H2347): 0.85 µM
IC50 (SW1573): 0.145 µM
IC50 (CAL-85-1): 0.0659 µM
IC50 (SNU-C1): 1.91 µM
IC50 (DBTRG-05MG): 0.57 µM
IC50 (EFO-21): 0.591 µM
IC50 (HCT-116): 1.02 µM
IC50 (OAW-28): 0.441 µM
IC50 (MC-IXC): < 0.0625 µM
IC50 (SW1783): 0.0386 µM
IC50 (HuO-3N1): 6.45 µM
IC50 (NCI-H650): 0.344 µM
IC50 (ME-180): 0.0401 µM
IC50 (NCI-H889): 2.48 µM
IC50 (786-0): < 0.0625 µM
IC50 (UACC-62): 2.16 µM
IC50 (NCI-H522): 0.169 µM
IC50 (SiHa): 1.89 µM
IC50 (RO82-W-1): 13.3 µM
IC50 (OAW-42): 0.0894 µM
IC50 (NCI-H2196): 0.886 µM
IC50 (COLO-680N): 0.244 µM
IC50 (MRK-nu-1): 0.11 µM
IC50 (SK-MEL-24): 1.37 µM
IC50 (HCC70): 0.694 µM
